Data set [1] can be described thus: Stock solution stability (bioanalytical stock solutions). Type of data set: physicochemical. Conditions: polypropylene container.
Data set [2] can be described thus: Nonclinical PK/PD study of low-dose dasatinib in NS and NSML mice for hypertrophic cardiomyopathy. The note with it: mouse, in vivo, doses 0.05 mg/kg to 0.5 mg/kg, based on exposure-response relationship, read-out: suggested potential target AUC for cardiac rescue. As for the experimental part:
A nonclinical study in mice was conducted to determine the PK and PD properties of a low-dose treatment of dasatinib in NS and NSML mice for the treatment of Hypertrophic cardiomyopathy (HCM). The goal was to establish in the same mouse model concurrent PK data and to correlate that with the endpoints of HCM using qPCR and immunoblotting. PK properties obtained from these mice were determined by Kana Mizuno and Alexander A. Vinks at Cincinnati Children's Hospital Medical Center. Dasatinib PK profiles and exposures (expressed as area under the concentration time curve; AUC) at doses ranging from 0.05 mg/kg to 0.5 mg/kg were estimated in NS and NSML mice. Based on the exposure-response relationship, potential target exposures to protect cardiac function were identified.

As for `[2H]C1([2H])N(CCO)C([2H])([2H])C([2H])([2H])N(c2cc(Nc3ncc(C(=O)Nc4c(C)cccc4Cl)s3)nc(C)n2)C1([2H])[2H]` [Dasatinib-D8], the “Stock Stability” value in data set [1] (storage temperature 22° C.) came to 25 h; in data set [1] (storage temperature −20° C.), 1010 h.
`Cc1nc(Nc2ncc(C(=O)Nc3c(C)cccc3Cl)s2)cc(N2CCN(CCO)CC2)n1` [Dasatinib]: the AUC in data set [2] fell in the range of 0.012 to 0.024 µg·h/mL. Besides, the “Stock Stability” value in data set [1] (storage temperature 22° C.) was 25 h; in data set [1] (storage temperature −20° C.), 1010 h.

One may read the AUC as the area under the concentration-time curve, a measure of exposure.

The values are drawn from patent US20210308057A1, “PEDIATRIC FORMULATION OF TYROSINE KINASE INHIBITORS” (IGIA Pharmaceuticals, Inc., priority 2020, published 2021).
